Laboratory results published in the supplement of paper PMC10307832.

Experiments:
Experiment in all cases: relative viability (nuclei count vs DMSO), 5 days (fraction); higher = more cells survive
[1] = compound: COc1cc2nccc(Oc3ccc(NC(=O)C4(C(=O)Nc5ccc(F)cc5)CC4)cc3)c2cc1OC [Cabozantinib] + O=C(CCCCCCC(=O)Nc1ccccc1)NO [Vorinostat] (partner 1 µM)
Method in brief: (§1)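 Values are medians from duplicate plates. Each reflects relative viability, defined as the nuclei count of treated wells over that of vehicle wells. Lung cancer cell lines in 1536-well plates were pin-tool dosed one day after seeding with one drug alone or with a fixed anchor-drug dose plus five library-drug doses (not always all listed) in √10 steps, then fixed, stained and imaged at 4× after 5 days.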

Kobe2602 + Vorinostat = compound: C1=CC(=CC=C1NC(=S)NNC2=C(C=C(C=C2[N+](=O)[O-])C(F)(F)F)[N+](=O)[O-])F [Kobe2602] + O=C(CCCCCCC(=O)Nc1ccccc1)NO [Vorinostat] (partner 1 µM)
Method in brief: as §1

Kobe2602 + Navitoclax = compound: C1=CC(=CC=C1NC(=S)NNC2=C(C=C(C=C2[N+](=O)[O-])C(F)(F)F)[N+](=O)[O-])F [Kobe2602] + CC1(C)CCC(c2ccc(Cl)cc2)=C(CN2CCN(c3ccc(C(=O)NS(=O)(=O)c4ccc(N[C@H](CCN5CCOCC5)CSc5ccccc5)c(S(=O)(=O)C(F)(F)F)c4)cc3)CC2)C1 [Navitoclax] (partner 0.5 µM)
Method in brief: as §1

Cell Line | relative viability ([1]; first compound 0.02 µM) | relative viability ([1]; first compound 0.06325 µM) | relative viability ([1]; first compound 0.2 µM) | relative viability ([1]; first compound 0.6325 µM) | relative viability ([1]; first compound 2 µM) | relative viability (Kobe2602 + Vorinostat; first compound 0.2 µM) | relative viability (Kobe2602 + Vorinostat; first compound 0.6325 µM) | relative viability (Kobe2602 + Vorinostat; first compound 2 µM) | relative viability (Kobe2602 + Vorinostat; first compound 6.325 µM) | relative viability (Kobe2602 + Vorinostat; first compound 20 µM) | relative viability (Kobe2602 + Navitoclax; first compound 0.2 µM) | relative viability (Kobe2602 + Navitoclax; first compound 0.6325 µM) | relative viability (Kobe2602 + Navitoclax; first compound 2 µM) | relative viability (Kobe2602 + Navitoclax; first compound 6.325 µM) | relative viability (Kobe2602 + Navitoclax; first compound 20 µM)
201T | 0.77 | 1.03 | 0.962 | 0.932 | 0.969 | 0.959 | 0.938 | 0.997 | 1.03 | 1.1 | 1.23 | 1.18 | 1.18 | 1.3 | 1.29
A549 | – | – | – | – | – | – | – | – | – | – | 1.26 | 1.21 | 1.22 | 1.11 | 1.17
A-427 | 0.871 | 0.865 | 0.902 | 0.841 | 0.951 | 0.889 | 0.849 | 0.906 | 0.888 | 0.867 | 1 | 0.945 | 0.934 | 0.97 | 0.459
ABC-1 | – | 1.24 | 0.99 | 1.02 | 0.913 | 1.17 | 1.54 | 0.754 | 1.02 | 1.41 | – | – | – | – | –
BEN | 0.562 | 0.567 | 0.565 | 0.554 | 0.518 | 0.634 | 0.606 | 0.581 | 0.56 | 0.625 | 0.0992 | 0.0652 | 0.0611 | 0.0659 | 0.0705
CAL-12T | 0.849 | 0.673 | 0.801 | 0.822 | 0.833 | 0.828 | 0.831 | 0.769 | 0.851 | 0.706 | 1.2 | 1.25 | 1.31 | 1.39 | 1.2
COR-L23 | 0.367 | 0.692 | 0.431 | 0.407 | 0.417 | 0.476 | 0.491 | 0.405 | 0.472 | 0.404 | 0.951 | 1.01 | 1.02 | 1.06 | 0.938
COR-L 105 | 0.847 | 1.05 | 0.734 | 0.839 | 0.89 | 0.786 | 0.932 | 0.647 | 0.774 | 0.705 | 0.525 | 0.756 | 0.786 | 0.909 | 0.784
Calu-6 | – | – | – | – | – | – | – | – | – | – | 0.818 | 0.875 | 0.866 | 0.826 | 0.744
ChaGo-K-1 | 0.741 | 0.81 | 0.704 | 0.72 | 0.772 | 0.813 | 0.812 | 0.766 | 0.708 | 0.697 | 1.12 | 1.26 | 1.02 | 1.05 | 0.933
EBC-1 | – | – | – | – | – | – | – | – | – | – | 0.373 | 0.488 | 0.436 | 0.452 | 0.483
EKVX | 0.725 | 0.868 | – | 0.708 | 0.84 | 0.678 | 0.879 | 0.652 | 0.757 | 0.672 | 0.926 | 0.926 | 0.955 | 0.88 | 0.9
EMC-BAC-2 | 0.279 | 0.678 | 0.608 | 0.456 | 0.422 | 0.494 | 1.01 | 0.425 | 0.593 | 0.462 | 1.16 | 1.17 | 1.11 | 1.13 | 1.16
EPLC-272H | 0.299 | 0.44 | 0.402 | 0.534 | 0.524 | 0.494 | 0.676 | 0.557 | 0.402 | 0.479 | 1.07 | 1.17 | 1.21 | 1.45 | 0.045
H3255 | 0.887 | 0.791 | – | 0.769 | 0.926 | 0.772 | 0.841 | 0.776 | 0.853 | 0.78 | 0.521 | 0.562 | 0.516 | 0.558 | 0.548
HARA | 0.576 | 0.52 | – | 0.529 | 0.489 | 0.529 | 0.553 | 0.422 | 0.509 | 0.767 | 1.22 | 1.19 | 1.16 | 1.06 | 1.11
HCC-15 | 0.913 | 0.893 | 0.861 | 0.799 | 0.824 | 0.908 | 0.912 | 0.814 | 0.815 | 0.812 | 0.715 | 0.728 | 0.665 | 0.664 | 0.65
HCC-44 | 1.1 | 1.29 | 1.08 | 1.14 | 1.08 | 0.999 | 1.04 | 1.08 | 1.05 | 0.99 | 0.989 | 0.998 | 0.928 | 0.963 | 1.02
HCC-78 | – | 0.415 | 0.394 | 0.344 | 0.295 | 0.485 | 0.444 | 0.433 | 0.452 | 0.507 | 0.761 | 0.893 | – | 0.78 | 0.91
HCC-366 | 0.309 | 0.381 | 0.374 | 0.378 | 0.429 | 0.311 | 0.357 | 0.329 | 0.273 | 0.296 | 1.07 | 0.98 | 0.832 | 1.06 | 1.06
HCC-827 | 0.837 | 1.05 | – | 0.785 | 0.526 | 0.891 | 0.739 | 0.804 | 0.892 | 0.945 | 0.987 | 1.13 | 1.06 | 1.03 | 0.981
HOP-62 | 0.661 | 0.764 | 0.669 | 0.603 | 0.555 | 0.707 | 0.717 | 0.559 | 0.763 | 0.688 | 1.01 | 1.03 | 0.986 | 1 | 1.04
IA-LM | 0.995 | 1.18 | 1 | 0.946 | 1.2 | 0.894 | 0.95 | 0.819 | 0.953 | 0.988 | – | 0.741 | 0.737 | 0.639 | 0.669
LC-2-ad | 0.724 | 0.806 | 0.767 | 0.682 | 0.522 | 0.664 | 0.706 | 0.719 | 0.649 | 0.722 | 0.378 | 0.374 | 0.453 | 0.371 | 0.404
